Experiment [1] has as its system Her2-positive cell line BT474. Put plainly: Calreticulin measurement (ICD marker), flow cytometry. The experiment is classed as cell-based, human. To be noted: Amanitin 100 nM, conjugates 50 nM antibody, 24, 48, 72 h post-treatment, vs media only. The procedure:
(§1) The Her2-positive cell line BT474 is a human breast cancer cell line. The CD79b-positive cell line BJAB is a human Burkitt lymphoma-derived B cell line.
(§2) Cells of the Her2-positive cell line BT474 and of the CD79b-positive cell line BJAB, respectively, were plated at 8×10^4 cells per well in 100 μL of media. Flat bottom or U-bottom plates were used for BT474 or BJAB cells, respectively. The following day, media was changed. […] Then, cells were treated with media alone, Maytansine (100 nM), Amanitin (100 nM), Anti-HER2-Amanitin conjugate (50 nM antibody), or Anti-CD79b-Amanitin conjugate (50 nM antibody) for 16-72 h.
(§3) Cells were assayed at 24, 48, and 72 h post-treatment. The adherent BT474 cells were lifted with a solution of highly purified, recombinant cell-dissociation enzymes (TrypLE, Thermo-Fisher) for 2 min. at 37° C. Both BT474 and BJAB cells were washed with PBS/2% FBS and then fixed in 0.5% paraformaldehyde for 5 min. After washing twice with cold PBS/2% FBS, cells were incubated for 5 min. with an Fc receptor binding inhibitor (FC block, eBioscience), blocking Fc receptor-mediated non-specific binding, followed by 30-min. incubation with Anti-Calreticulin-FITC (Abcam) or isotype control-FITC (Abcam). […] Propidium iodide (PI) was added, and samples were analyzed by flow cytometry on a FACSCanto instrument (Becton-Dickinson) using FACS Diva software.

Experiment [2] deals with CD79b-positive cell line BJAB. The description is as above. Format: cell-based, human. To be noted: Amanitin 100 nM, conjugates 50 nM antibody, 24, 48, 72 h post-treatment, vs media only. The procedure: as §1, §2, §3
Experiment [3] deals with Her2-positive cell line BT474. The experiment in a line: Extracellular ATP measurement (ICD marker). Format: cell-based, human. Particulars: Amanitin 100 nM, conjugates 50 nM antibody, 16, 40, 64 h post-treatment, vs media only. How it is done:
as §1, §2
(§4) At 16, 40, and 64 h post-treatment, culture media was transferred to reaction tubes (Eppendorf) and centrifuged gently. Extracellular ATP concentrations were determined by use of the ENLITEN ATP Assay (Promega). Chemiluminescence was measured on a SpectraMax ME chemiluminescence reader (Molecular Devices).

The test system of experiment [4] is CD79b-positive cell line BJAB. Put plainly: Extracellular ATP measurement (ICD marker). Format: cell-based, human. Particulars: Amanitin 100 nM, conjugates 50 nM antibody, 16, 40, 64 h post-treatment, vs media only. The procedure: as §1, §2, §4
Another experiment deals with RNA-polymerase II (Homo sapiens, UniProt P24928). To be noted: read-out: KD of the complex between amanitin and RNA-polymerase II; cited from earlier work.
The subject of experiment [5] is Her2-positive cell line BT474. The experiment in a line: Extracellular HMGB1 measurement (ICD marker), ELISA. The experiment is classed as cell-based, human. To be noted: Amanitin 100 nM, conjugates 50 nM antibody, 24, 48, 72 h post-treatment, vs media only. The procedure: as §1, §2
(§5) Culture media was collected at 24, 48, and 72 h post-treatment. Analytes were captured on a Nunc Maxisorp 96-well plate coated at pH 9 with 1 μg/mL Anti-HMGB1 antibody (clone 1D5, Sigma), and plates were blocked with casein buffer (ThermoFisher). A standard curve was generated using recombinant human HMGB1 protein (R&D Systems) added to culture media that had been incubated at 37° C./5% CO2 for the same number of days as the experimental samples. This step had the effect of normalizing background signals observed in fresh culture media. […] After 30 min, the plate was washed with PBS/0.1% Tween-20, and bound secondary antibody was detected using Ultra TMB (Thermo Fisher); signals were read on a Molecular Devices Spectra Max M5 plate reader. […]

Experiment [6] relates to CD79b-positive cell line BJAB. The experiment is described as above. Format: cell-based, human. To be noted: Amanitin 100 nM, conjugates 50 nM antibody, 24, 48, 72 h post-treatment, vs media only. The procedure:
as §1, §2, §5

For experiment [7], the system named is CD19-positive Raji cells (human Burkitt lymphoma). Put plainly: Raji xenograft mouse model with human PBMCs, ATAC and Avelumab (first Example 4, FIG. 5). The experiment is classed as in vivo, mice. The procedure:
FIG. 5. Synergistic action of Avelumab and Anti-CD19-Amatoxin conjugate in the presence of peripheral blood mononuclear cells (PBMCs). Results of anti-tumoral studies using anti-PD-L1 antibody Avelumab (20 mg/kg, i.v., days 0, 3, 6, 8, 10, 13), or anti-CD19-amatoxin conjugate (ATAC, 0.1 and 0.3 mg/kg, respectively; single dose i.v. day 0), or a combination of Avelumab (20 mg/kg) and ATAC (0.1 and 0.3 mg/kg, respectively), in vivo in a Raji xenograft mice model system. Tumor volume was assessed at various time points after tumor cell inoculation.
The cytotoxic activity of the combination comprising an ICI and an ATAC has been assessed by use of a tumor mouse model in vivo. The study consisted of 6 experimental groups with 12 animals each. CD19-positive Raji cells (human Burkitt lymphoma, DSMZ) were premixed with human peripheral blood mononuclear cells (PBMCs, German Red Cross) and inoculated subcutaneously on study day 0. […] Tumor volumes were measured twice per week by calliper measurements and body weights were determined in parallel. […]
Background: In xenograft studies the graft and the host belong to different species.

The term Kd denotes the concentration at which binding is half-saturated. In the case of Amanitin, the “cell surface exposure of calreticulin (CRT)” value in experiment [1] and in experiment [2] was “did not induce” in each case. Further, the ATP secretion entry in experiment [3] and in experiment [4] was “did not induce” in each case. Besides, the Kd on RNA-polymerase II is 3 nM. The HMGB1 release entry in experiment [5] and in experiment [6] was “did not induce” each time.

Turning to Avelumab: PD-L1-specific antibody, the “Reduction of the tumor volumes as compared to the control group (PBS), single agents compared with each other” value in experiment [7] (Avelumab 20 mg/kg alone, ATAC 0.1 mg/kg alone) is given as “comparable”. Also, the “Mean TV (tumor volume)” value in experiment [7] (day 31 post tumor cell inoculation, Avelumab 20 mg/kg i.v. days 0, 3, 6, 8, 10, 13) was found to be 353.1 mm^3.

Values taken from US20250009901A1, “COMPOSITION COMPRISING A COMBINATION OF IMMUNE CHECKPOINT INHIBITOR AND ANTIBODY-AMATOXIN CONJUGATE FOR USE IN CANCER THERAPY” (Heidelberg Pharma Research GmbH, priority 2020, published 2025).
